# Results reported in patent US9302999B2, “Substituted triazoles as herbicides” (E. I. DU PONT DE NEMOURS AND COMPANY, priority 2012, dated 2016).
# Read-outs that look alike come from different tables or passages of the source.
# What was measured:
# Format in all cases: in vivo
# [1] = test system: barnyardgrass (Echinochloa crus-galli); assay: Test B flooded paddy: barnyardgrass; conditions: Flood, applied to paddy water at 2-leaf stage, visually evaluated after 13 to 15 days
# In short: (§1)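 Plants were grown to the 2-leaf stage and pots flooded to 3 cm above soil. Compounds were applied directly into the paddy water, with depth kept for the test. After 13–15 days in greenhouse, response was rated visually against controls on a 0 (no effect) to 100 (complete control) scale.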
# [2] = test system: crabgrass, large (large crabgrass, Digitaria sanguinalis); assay: Test A pre-/postemergence: crabgrass, large; conditions: for pest or weed control at 125 g/ha / pest or weed control at 500 g/ha: Digitaria sanguinalis, 240 h
# In short: (§2)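 Rating scale 0–100 (100 = complete control), visual, ~10 days after application in the greenhouse. Applications: preemergence directed soil spray; postemergence at 1–2 leaves.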
# [3] = test system: blackgrass (Alopecurus myosuroides); assay: Test C pre-/postemergence: blackgrass
# In short: (§3)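 Preemergence on seeds in loam/sand, postemergence on 2–18 cm (1–4-leaf) plants in peat-based medium; compounds in non-phytotoxic solvent with surfactant. After 13–15 days in greenhouse, visual rating versus controls, 0 (no effect) to 100 (complete control).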
# soybean (Glycine max) = assay: Test C pre-/postemergence: soybean
# In short: as §3
# rice (Oryza sativa) = assay: Test B flooded paddy: rice; conditions: Flood, applied to paddy water at 2-leaf stage, visually evaluated after 13 to 15 days
# In short: as §1
# [4] = test system: morningglory (Ipomoea spp.); assay: Test A pre-/postemergence: morningglory; conditions: for pest or weed control at 125 g/ha / pest or weed control at 500 g/ha: Ipomoea, 240 h
# In short: as §2
# [5] = test system: lambsquarters (Chenopodium album); assay: Test C pre-/postemergence: lambsquarters
# In short: as §3
# [6] = test system: pigweed (Amaranthus retroflexus); assay: Test A pre-/postemergence: pigweed; conditions: for pest or weed control at 125 g/ha / pest or weed control at 500 g/ha: Amaranthus retroflexus, 240 h
# In short: as §2
# [7] = test system: barnyardgrass (Echinochloa crus-galli); assay: Test A pre-/postemergence: barnyardgrass; conditions: for pest or weed control at 125 g/ha / pest or weed control at 500 g/ha: Echinochloa crus-galli, 240 h
# In short: as §2
# [8] = test system: ragweed (common ragweed, Ambrosia elation); assay: Test C pre-/postemergence: ragweed
# In short: as §3
# [9] = Postemergence, 125 g ai/ha, 0 to 100 scale, 0 is no effect, 100 is complete control
# [10] = Postemergence, 500 g ai/ha, visual rating on 0 to 100 scale (0 no effect, 100 complete control), approximately ten days
# [11] = Preemergence, 125 g ai/ha, 0 to 100 scale where 0 is no effect and 100 is complete control
# [12] = Preemergence, 500 g ai/ha, 0 to 100 scale (0 no effect, 100 complete control)
# [13] = Postemergence, 16 g ai/ha, scale 0 to 100, 0 no effect, 100 complete control
# [14] = Postemergence, 31 g ai/ha, scale 0 to 100 (0 no effect, 100 complete control)
# [15] = Postemergence, 62 g ai/ha, scale 0 to 100 (0 no effect, 100 complete control)
# [16] = Postemergence, 125 g ai/ha, scale 0 to 100, 0 no effect, 100 complete control
# [17] = Preemergence, 16 g ai/ha, scale 0 (no effect) to 100 (complete control)
# [18] = Preemergence, 31 g ai/ha, scale of 0 to 100, 0 is no effect, 100 is complete control
# [19] = Preemergence, 62 g ai/ha, scale of 0 to 100, 0 is no effect, 100 is complete control
# [20] = Preemergence, 125 g ai/ha, scale 0 to 100, 0 no effect, 100 complete control
# [21] = Postemergence, 250 g ai/ha, scale 0 to 100
# [22] = Preemergence, 31 g ai/ha, scale 0 (no effect) to 100 (complete control)
# [23] = Preemergence, 250 g ai/ha, scale 0 to 100, 0 no effect, 100 complete control
smiles,measurement,setting,value
FCc1nn(-c2ccc(F)cc2)nc1Oc1ccnc(C(F)(F)F)c1 [Compound 160],"Plant response rating, Barnyardgrass (0 to 100 scale, 0 is no effect, 100 is complete control)",[1]; 250 g ai/ha,65
same,"Plant response rating, Crabgrass, Large",[2]; [9],90
same,"Crabgrass, Large plant response rating",[2]; [10],90
same,"Plant response rating, Crabgrass, Large",[2]; [11],100
same,"Plant response rating, Crabgrass, Large",[2]; [12],100
same,"Plant response rating, Blackgrass",[3]; [13],25
same,"Plant response rating, Blackgrass",[3]; [14],35
same,"Plant response rating, Blackgrass",[3]; [15],45
same,"Plant response rating, Blackgrass",[3]; [16],65
same,"Plant response rating, Blackgrass",[3]; [17],0
same,"Plant response rating, Blackgrass",[3]; [18],40
same,"Plant response rating, Blackgrass",[3]; [19],90
same,"Plant response rating, Blackgrass",[3]; [20],90
same,"Plant response rating, Soybean",soybean (Glycine max); [13],15
same,"Plant response rating, Soybean",soybean (Glycine max); [14],25
same,"Plant response rating, Soybean",soybean (Glycine max); [15],25
same,"Plant response rating, Soybean",soybean (Glycine max); [16],30
same,"Plant response rating, Soybean",soybean (Glycine max); [17],0
same,"Plant response rating, Soybean",soybean (Glycine max); [18],5
same,"Plant response rating, Soybean",soybean (Glycine max); [19],20
same,"Plant response rating, Soybean",soybean (Glycine max); [20],20
same,"Plant response rating, Rice (0 to 100 scale, 0 is no effect, 100 is complete control)",rice (Oryza sativa); 250 g ai/ha,55
same,"Plant response rating, Morningglory",[4]; [9],90
same,Morningglory plant response rating,[4]; [10],90
same,"Plant response rating, Morningglory",[4]; [11],40
same,"Plant response rating, Morningglory",[4]; [12],70
same,"Plant response rating, Lambsquarters",[5]; [13],70
same,"Plant response rating, Lambsquarters",[5]; [14],80
same,"Plant response rating, Lambsquarters",[5]; [15],95
same,"Plant response rating, Lambsquarters",[5]; [16],95
same,"Plant response rating, Lambsquarters",[5]; [17],95
same,"Plant response rating, Lambsquarters",[5]; [18],100
same,"Plant response rating, Lambsquarters",[5]; [19],100
same,"Plant response rating, Lambsquarters",[5]; [20],100
same,"Plant response rating, Pigweed",[6]; [9],100
same,Pigweed plant response rating,[6]; [10],100
same,"Plant response rating, Pigweed",[6]; [11],100
same,"Plant response rating, Pigweed",[6]; [12],100
same,"Plant response rating, Barnyardgrass",[7]; [9],70
same,Barnyardgrass plant response rating,[7]; [10],90
same,"Plant response rating, Barnyardgrass",[7]; [11],100
same,"Plant response rating, Barnyardgrass",[7]; [12],100
same,"Plant response rating, Ragweed",[8]; [13],10
same,"Plant response rating, Ragweed",[8]; [14],10
same,"Plant response rating, Ragweed",[8]; [15],40
same,"Plant response rating, Ragweed",[8]; [16],40
same,"Plant response rating, Ragweed",[8]; [17],0
same,"Plant response rating, Ragweed",[8]; [18],0
same,"Plant response rating, Ragweed",[8]; [19],5
same,"Plant response rating, Ragweed",[8]; [20],5
"CCOc1nn(-c2ccc(C(F)(F)F)cc2)nc1Cc1ccnc(C(F)(F)F)c1 [Compound 164, 4-[[5-ethoxy-2-[4-(trifluoromethyl)phenyl]-2H-1,2,3-triazol-4-yl]methyl]-2-(trifluoromethyl)pyridine]","Plant response rating, Barnyardgrass (0 to 100 scale, 0 is no effect, 100 is complete control)",[1]; 125 g ai/ha,60
same,pest or weed control at 125 g/ha,"[2]; post-emergence, Postemergence, 125 g ai/ha, 0 to 100 scale, 0 is no effect, 100 is complete control, read-out: Plant response rating, Crabgrass, Large",90%
same,pest or weed control at 500 g/ha,"[2]; post-emergence, Postemergence, 500 g ai/ha, 0 to 100 scale, 0 is no effect, 100 is complete control, read-out: Crabgrass, Large plant response rating",90%
same,pest or weed control at 125 g/ha,"[2]; pre-emergence, Preemergence, 125 g ai/ha, 0 to 100 scale where 0 is no effect and 100 is complete control, read-out: Plant response rating, Crabgrass, Large",100%
same,pest or weed control at 500 g/ha,"[2]; pre-emergence, Preemergence, 500 g ai/ha, 0 to 100 scale (0 no effect, 100 complete control), read-out: Plant response rating, Crabgrass, Large",100%
same,"Plant response rating, Blackgrass",[3]; [14],5
same,"Plant response rating, Blackgrass",[3]; [15],5
same,"Plant response rating, Blackgrass",[3]; [16],15
same,"Plant response rating, Blackgrass",[3]; [21],15
same,"Plant response rating, Blackgrass",[3]; [22],5
same,"Plant response rating, Blackgrass",[3]; [19],10
same,"Plant response rating, Blackgrass",[3]; [20],60
same,"Plant response rating, Blackgrass",[3]; [23],70
same,"Plant response rating, Soybean",soybean (Glycine max); [14],30
same,"Plant response rating, Soybean",soybean (Glycine max); [15],40
same,"Plant response rating, Soybean",soybean (Glycine max); [21],50
same,"Plant response rating, Soybean",soybean (Glycine max); [22],0
same,"Plant response rating, Soybean",soybean (Glycine max); [19],0
same,"Plant response rating, Soybean",soybean (Glycine max); [20],5
same,"Plant response rating, Soybean",soybean (Glycine max); [23],5
same,"Plant response rating, Rice (0 to 100 scale, 0 is no effect, 100 is complete control)",rice (Oryza sativa); 125 g ai/ha,45
same,pest or weed control at 125 g/ha,"[4]; post-emergence, Postemergence, 125 g ai/ha, 0 to 100 scale, 0 is no effect, 100 is complete control, read-out: Plant response rating, Morningglory",100%
same,pest or weed control at 500 g/ha,"[4]; post-emergence, Postemergence, 500 g ai/ha, 0 to 100 scale, 0 is no effect, 100 is complete control, read-out: Morningglory plant response rating",100%
same,pest or weed control at 125 g/ha,"[4]; pre-emergence, Preemergence, 125 g ai/ha, 0 to 100 scale where 0 is no effect and 100 is complete control, read-out: Plant response rating, Morningglory",80%
same,pest or weed control at 500 g/ha,"[4]; pre-emergence, Preemergence, 500 g ai/ha, 0 to 100 scale (0 no effect, 100 complete control), read-out: Plant response rating, Morningglory",90%
same,"Plant response rating, Lambsquarters",[5]; [14],50
same,"Plant response rating, Lambsquarters",[5]; [15],55
same,"Plant response rating, Lambsquarters",[5]; [16],60
same,"Plant response rating, Lambsquarters",[5]; [21],70
same,"Plant response rating, Lambsquarters",[5]; [22],85
same,"Plant response rating, Lambsquarters",[5]; [19],85
same,"Plant response rating, Lambsquarters",[5]; [20],95
same,"Plant response rating, Lambsquarters",[5]; [23],95
same,pest or weed control at 125 g/ha,"[6]; post-emergence, Postemergence, 125 g ai/ha, 0 to 100 scale, 0 is no effect, 100 is complete control, read-out: Plant response rating, Pigweed",100%
same,pest or weed control at 500 g/ha,"[6]; post-emergence, Postemergence, 500 g ai/ha, 0 to 100 scale, 0 is no effect, 100 is complete control, read-out: Pigweed plant response rating",100%
same,pest or weed control at 125 g/ha,"[6]; pre-emergence, Preemergence, 125 g ai/ha, 0 to 100 scale where 0 is no effect and 100 is complete control, read-out: Plant response rating, Pigweed",100%
same,pest or weed control at 500 g/ha,"[6]; pre-emergence, Preemergence, 500 g ai/ha, 0 to 100 scale (0 no effect, 100 complete control), read-out: Plant response rating, Pigweed",100%
same,pest or weed control at 125 g/ha,"[7]; post-emergence, Postemergence, 125 g ai/ha, 0 to 100 scale, 0 is no effect, 100 is complete control, read-out: Plant response rating, Barnyardgrass",90%
same,pest or weed control at 500 g/ha,"[7]; post-emergence, Postemergence, 500 g ai/ha, 0 to 100 scale, 0 is no effect, 100 is complete control, read-out: Barnyardgrass plant response rating",90%
same,pest or weed control at 125 g/ha,"[7]; pre-emergence, Preemergence, 125 g ai/ha, 0 to 100 scale where 0 is no effect and 100 is complete control, read-out: Plant response rating, Barnyardgrass",90%
same,pest or weed control at 500 g/ha,"[7]; pre-emergence, Preemergence, 500 g ai/ha, 0 to 100 scale (0 no effect, 100 complete control), read-out: Plant response rating, Barnyardgrass",100%
same,"Plant response rating, Ragweed",[8]; [14],50
same,"Plant response rating, Ragweed",[8]; [15],50
same,"Plant response rating, Ragweed",[8]; [21],60
same,"Plant response rating, Ragweed",[8]; [22],20
same,"Plant response rating, Ragweed",[8]; [19],20
same,"Plant response rating, Ragweed",[8]; [20],25
same,"Plant response rating, Ragweed",[8]; [23],30
